Measured values published in ChEMBL document CHEMBL5390215, “SARS-CoV-2 papain-like protease (PLpro) inhibitory and antiviral activity of small molecule derivatives for drug leads” (Bioorg Med Chem Lett, 2023).

Assays:
[1] = molecular target: Replicase polyprotein 1ab (Severe acute respiratory syndrome-related coronavirus, UniProt P0C6X7); assay: Inhibition of SARS-CoV-1 papain-like protease
[2] = system: SARS-CoV-2; assay: Antiviral activity against SARS-CoV-2 infected Chlorocebus sabaeus Vero E6 cells assessed as inhibition of viral replication; type: functional; details: Severe acute respiratory syndrome coronavirus 2, Vero C1008; read-out: ID50 (the source's name)
[3] = system: SARS-CoV; assay: Antiviral activity against SARS-CoV-1 infected Chlorocebus sabaeus Vero E6 cells assessed as inhibition of viral replication; type: functional; details: Severe acute respiratory syndrome-related coronavirus, Vero C1008; read-out: ID50 (the source's name)
[4] = molecular target: Replicase polyprotein 1ab (Severe acute respiratory syndrome coronavirus 2, UniProt P0DTD1); assay: Inhibition of SARS-CoV-2 papain-like protease

| SMILES | IC50 [1] [µM] | IC50 [2] [µM] | IC50 [3] [µM] | IC50 [4] [µM] |
| --- | --- | --- | --- | --- |
| COc1ccc(CNC(=O)C2CCN([C@H](C)c3cccc4ccccc34)CC2)cc1 | 0.56 | 17 | 10.2 | 0.92 |
| COc1cccc(CNC(=O)C2CCN([C@H](C)c3ccc4ccccc4c3)CC2)c1 | 13.2 | 27 | – | – |
| CCCN(CCC)C(=O)c1ccc(C)c(C(=O)N[C@H](C)c2cccc3ccccc23)c1 | – | > 100 | – | > 100 |
| C[C@@H](NS(=O)(=O)c1ccc([N+](=O)[O-])cc1)c1cccc2ccccc12 | – | 56 | – | 6.3 |
| C[C@@H](NC(=O)[C@@H](Cc1c[nH]c2ccccc12)NC(=O)OC(C)(C)C)c1cccc2ccccc12 | – | 36 | – | > 100 |
| C[C@@H](NC(=O)[C@H](N)Cc1ccccc1)c1cccc2ccccc12 | – | 76 | – | > 100 |
| COc1ccc(C(=O)N[C@H](C)c2cccc3ccccc23)cc1N | – | > 100 | – | 35.2 |
| C[C@@H](NC(=O)[C@H](NC(=O)OC(C)(C)C)c1ccccc1)c1cccc2ccccc12 | – | > 100 | – | 13.3 |
| C[C@@H](NS(=O)(=O)c1cccc([N+](=O)[O-])c1)c1cccc2ccccc12 | – | 38 | – | 15.5 |
| C[C@@H](NC(=O)[C@@H](NC(=O)OC(C)(C)C)c1ccccc1)c1cccc2ccccc12 | – | > 100 | – | 13.2 |
| C[C@@H](NC(=O)[C@@H](Cc1ccccc1)NC(=O)OC(C)(C)C)c1cccc2ccccc12 | – | 38 | – | > 100 |
| C[C@@H](NS(=O)(=O)c1ccc(N)cc1)c1cccc2ccccc12 | – | > 100 | – | > 100 |
| Cc1ccc(C(=O)NC(C)C)cc1C(=O)N[C@H](C)c1cccc2ccccc12 | – | > 100 | – | > 100 |
| CCCN(CCC)C(=O)c1cccc(C(=O)N[C@H](C)c2cccc3ccccc23)c1 | – | 15 | – | 15.9 |
| C[C@@H](NS(=O)(=O)c1cccc(N)c1)c1cccc2ccccc12 | – | 64 | – | – |
| C[C@@H](NC(=O)[C@H](N)Cc1c[nH]c2ccccc12)c1cccc2ccccc12 | – | 31 | – | > 100 |
| COc1ccc([C@@H](C)NC(=O)c2cc(N)ccc2C)c2ccccc12 | – | 36 | – | > 100 |
| Cc1ccc(N)cc1C(=O)N[C@H](C)c1cccc2ccccc12 | – | 38 | – | – |
| CNCc1ccc(C)c(C(=O)N[C@H](C)c2cccc3ccccc23)c1 | – | 20 | – | – |
| Cc1ccc(CN)cc1C(=O)N[C@H](C)c1cccc2ccccc12 | – | 24 | – | – |
